These results are taken from US6796312B2, “Process and apparatus for the removal of toxic components of tobacco smoke and the standardization of the health hazards related to those components” (priority 2001, dated 2004).

The target of one assay is T1, myeloperoxidase (Homo sapiens, UniProt P05164).
T1 construct: Homogenates were centrifuged at 1,300×g for ten (10) minutes and the supernatant extracts were kept during the course of analysis; from tissue; host or cells: human sputum / oral fluid-cell harvest (neutrophil-rich) homogenate supernatants
T1 sequence (P05164 49-745): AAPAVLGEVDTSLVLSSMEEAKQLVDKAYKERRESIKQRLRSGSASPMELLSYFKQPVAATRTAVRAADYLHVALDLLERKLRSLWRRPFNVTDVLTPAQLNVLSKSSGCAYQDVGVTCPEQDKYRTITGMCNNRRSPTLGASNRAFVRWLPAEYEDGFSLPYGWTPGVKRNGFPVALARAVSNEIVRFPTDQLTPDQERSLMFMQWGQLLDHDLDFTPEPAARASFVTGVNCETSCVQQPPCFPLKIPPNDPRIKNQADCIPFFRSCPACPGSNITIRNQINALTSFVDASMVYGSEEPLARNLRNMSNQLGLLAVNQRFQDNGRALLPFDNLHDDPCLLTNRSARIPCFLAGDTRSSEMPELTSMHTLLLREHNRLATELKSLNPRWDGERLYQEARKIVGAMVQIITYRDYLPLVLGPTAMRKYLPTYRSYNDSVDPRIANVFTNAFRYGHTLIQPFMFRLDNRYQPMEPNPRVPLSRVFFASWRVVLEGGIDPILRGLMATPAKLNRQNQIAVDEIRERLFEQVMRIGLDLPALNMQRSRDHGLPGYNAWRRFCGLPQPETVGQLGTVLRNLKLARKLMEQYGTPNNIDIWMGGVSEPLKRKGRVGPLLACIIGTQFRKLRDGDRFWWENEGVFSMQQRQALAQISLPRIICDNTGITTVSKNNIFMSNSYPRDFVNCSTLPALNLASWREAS
As to the kind of experiment: NADH2-NDGA-myeloperoxidase spectrophotometric assay of sputum / oral fluid-cell harvest supernatant extracts. The assay is classed as biochemical. Here is the method:
Aliquots of fresh human oral fluid-cell harvests as exemplified above or fresh human sputum collected by the donors over a twenty-four (24) hour period were disrupted employing either Ten Broeck glass homogenizers or the Virtis homogenizer. Homogenates were centrifuged at 1,300×g for ten (10) minutes and the supernatant extracts were kept during the course of analysis at zero degrees centigrade (0° C.). Other reactants were incubated at thirty-five degrees centigrade (35° C.). Reduced nicotinamide-adenine dinucleotide oxidase and norhydroguaiaretic acid-myeloperoxidase activities were followed at 340 mμ or (nm) employing the Beckman Model DU Spectrophotometer temperature regulated at thirty-five degrees centigrade (35° C.). All specific reactions were run as duplicate assays.
Although this oxidation was very small under the conditions of experiment, an interaction correction factor was determined and applied to all reduced nicotinamide-adenine dinucleotide-nordihydroguaiaretic acid-mycloperoxidase assay reactions.
The velocity constants for the myeloperoxidase reactions behaved and were computed in accord with zero order reaction kinetics. […] In most instances, the activities followed first order reaction kinetics for a short interval and then ceased abruptly. The latter may be due to the presence or accumulation of variable concentrations of an unidentified inhibitor or inhibitors in the supernatants. Since in all cases the oxidase activities were very slow relative to the myeloperoxidase activities, the difference in optical density over the course of the reactions (up to ten (10) minutes) for the oxidase system were computed in the same manner as the data for the rapid myeloperoxidase system. Thus, all velocity constants were expressed in μ Moles of reduced nicotinamide-adenine dinucleotide oxidized per minute per ml. of oral fluid-cell harvest or sputum. The small oxidase activities were applied as a correction factor in the computation of all myeloperoxidase velocity constants.
The pH optimum of the myeloperoxidase system was determined. When fresh nordihydroguaiaretic acid solutions were prepared and interaction rates with reduced nicotinamide-adenine dinucleotide were subtracted as controls from oral lavage and sputum supernatant myeloperoxidase activities, the net velocity constants were zero (0). On the other hand, five (5) hour old nordihydroguaiaretic acid solutions yielded optimal activities at approximately pH 7.4. Subsequent experiments uniformly were carried out at pH 7.0 using five (5) hour old solutions to minimize the rates of the auto oxidation of nordihydroguaiaretic acid and oxidation of reduced nicotinamide-adenine dinucleotide by nordihydroguaiaretic acid when employing alkaline pH's.

Assay [1] has as its target T2, yeast alcohol dehydrogenase (Saccharomyces cerevisiae, UniProt P00330).
T2 sequence (P00330 1-348): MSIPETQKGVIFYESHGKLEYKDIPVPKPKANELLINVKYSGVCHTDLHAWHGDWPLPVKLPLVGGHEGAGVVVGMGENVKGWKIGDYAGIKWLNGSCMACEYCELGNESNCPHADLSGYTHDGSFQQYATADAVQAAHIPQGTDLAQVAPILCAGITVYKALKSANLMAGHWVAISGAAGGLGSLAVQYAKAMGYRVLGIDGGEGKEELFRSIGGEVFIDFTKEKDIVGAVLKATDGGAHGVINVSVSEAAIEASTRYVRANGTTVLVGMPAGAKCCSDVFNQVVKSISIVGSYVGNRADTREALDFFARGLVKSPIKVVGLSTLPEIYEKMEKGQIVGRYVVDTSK
Particulars: 2.7×10^−4 Molar (80 ppm); cited from earlier work.

Assay [2] concerns the target squash ascorbic acid oxidase (Cucurbita pepo var. melopepo, UniProt P37064). Particulars: cited from earlier work.
Another assay concerns caries. Particulars: hamsters in vivo; cited from earlier work.

Each structure is given as a SMILES string.

squash ascorbic acid oxidase, sequence (P37064 whole entry): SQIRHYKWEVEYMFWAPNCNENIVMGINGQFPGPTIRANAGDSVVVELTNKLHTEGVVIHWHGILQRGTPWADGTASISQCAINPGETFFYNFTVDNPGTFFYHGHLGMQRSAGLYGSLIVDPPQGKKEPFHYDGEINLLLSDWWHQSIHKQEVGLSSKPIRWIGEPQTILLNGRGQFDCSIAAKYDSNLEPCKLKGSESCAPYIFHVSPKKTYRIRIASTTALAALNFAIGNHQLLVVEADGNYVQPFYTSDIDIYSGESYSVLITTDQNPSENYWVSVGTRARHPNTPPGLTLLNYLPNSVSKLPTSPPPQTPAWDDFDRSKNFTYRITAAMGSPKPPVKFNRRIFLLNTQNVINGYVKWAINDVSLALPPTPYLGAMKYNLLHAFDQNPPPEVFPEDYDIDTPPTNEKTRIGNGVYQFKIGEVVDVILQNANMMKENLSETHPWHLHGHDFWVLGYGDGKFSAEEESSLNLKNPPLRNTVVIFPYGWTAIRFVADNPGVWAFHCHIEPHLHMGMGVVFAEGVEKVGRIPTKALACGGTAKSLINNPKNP

In the case of `CC(Cc1ccc(O)c(O)c1)C(C)Cc1ccc(O)c(O)c1` (stereo not drawn) [NDGA, beta, gamma-dimethyl-alpha, ortho-bis (3,4 dihydroxiphenyl) butane], the NADH2-NDGA-MPO velocity constant is given as 0.00 μ Moles NADH2 oxidized per minute per ml. of sputum supernatant at myeloperoxidase (NDGA solution aged 0 minutes); 8.97 μ Moles NADH2 oxidized per minute per ml. of sputum supernatant at myeloperoxidase (NDGA solution aged 60 minutes); 14.43 μ Moles NADH2 oxidized per minute per ml. of sputum supernatant at myeloperoxidase (NDGA solution aged 120 minutes); 27.65 μ Moles NADH2 oxidized per minute per ml. of sputum supernatant on myeloperoxidase (NDGA solution aged 180 minutes); 28.89 μ Moles NADH2 oxidized per minute per ml. of sputum supernatant at myeloperoxidase (NDGA solution aged 240 minutes); 32.40 μ Moles NADH2 oxidized per minute per ml. of sputum supernatant on myeloperoxidase (NDGA solution aged 337 minutes). Besides, the NADH2-NDGA-MPO velocity constant is listed as 41.39 μ Moles NADH2 oxidized per minute per ml. of sputum supernatant on myeloperoxidase (NDGA solution aged 397 minutes), 44.21 μ Moles NADH2 oxidized per minute per ml. of sputum supernatant at myeloperoxidase (NDGA solution aged 440 minutes) and 46.85 μ Moles NADH2 oxidized per minute per ml. of sputum supernatant on myeloperoxidase (NDGA solution aged 485 minutes). In addition, the “inhibition of yeast alcohol dehydrogenase” value in assay [1] was 71%. For the same molecule, in assay [2], the “inhibition of squash ascorbic acid oxidase” value is on record as 100%. Moreover, the anti-caries effect entry in the assay with caries was “effective experimental anti-caries agent”.
